Test results from patent US6461997B1, “Triazole sulfones having herbicidal activity” (Monsanto Technology LLC, priority 1999, dated 2002).

Columns and labels:
[1] = test system: SETFA (giant foxtail); assay: Pre-plant incorporated (PPI) herbicidal activity, warm season; type: in vivo, Setaria faberi; conditions: for Percent inhibition SETFA: PPI application
Summary of the method: (§1)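 Spray-treated, thoroughly mixed cover soil was laid over seeds; untreated soil served as control cover. Day/night temperatures: 30/21° C warm season, 18/13° C cool season. Efficacy recorded ~14 days after planting as percent inhibition.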

[2] = test system: SORVU (shattercane); assay: as above; type: in vivo, Sorghum vulgare; conditions: for Percent inhibition SORVU: PPI application
Summary of the method: as §1

[3] = test system: BRAPP (broadleaf signalgrass); assay: as above; type: in vivo, Brachiaria platyphylla; conditions: for Percent inhibition BRAPP: PPI application
Summary of the method: as §1

[4] = test system: GALAP (catchweed bedstraw); assay: Pre-plant incorporated (PPI) herbicidal activity, cool season; type: in vivo, Galium aparine; conditions: for Percent inhibition GALAP: weed, PPI application
Summary of the method: as §1

[5] = test system: SINAR (wild mustard); assay: as above; type: in vivo, Sinapis arvensis; conditions: for Percent inhibition SINAR: weed, PPI application
Summary of the method: as §1

[6] = test system: SASKR (russian thistle); assay: as above; type: in vivo, Salsola kali; conditions: for Percent inhibition SASKR: weed, PPI application
Summary of the method: as §1

[7] = test system: STEME (common chickweed); assay: as above; type: in vivo, Stellaria media; conditions: for Percent inhibition STEME: weed, PPI application
Summary of the method: as §1

[8] = test system: LAMPU (purple deadnettle); assay: as above; type: in vivo, Lamium purpureum; conditions: for Percent inhibition LAMPU: weed, PPI application
Summary of the method: as §1

[9] = test system: SETVI (green foxtail); assay: as above; type: in vivo, Setaria viridis; conditions: for Percent inhibition SETVI: weed, PPI application
Summary of the method: as §1

[10] = test system: AGRRE (quackgrass (seedling)); assay: as above; type: in vivo, Elymus repens; conditions: for Percent inhibition AGRRE: weed, PPI application
Summary of the method: as §1

[11] = test system: corn (ZEAMX); assay: Selectivity test, PPI, warm season crop; type: in vivo, Zea mays; conditions: PPI application
Summary of the method: (§2)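 Pre-plant incorporated: compound in organic solvent sprayed onto cover soil, mixed and laid over seeds; untreated soil for controls. Greenhouse after treatment: warm season 30/21° C., cool season 18/13° C. day/night. Percent inhibition versus untreated plants scored about 14 days after planting.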

[12] = test system: wheat (TRZAW); assay: Selectivity test, PPI, cool season crop; type: in vivo, Triticum aestivum; conditions: PPI application
Summary of the method: as §2

[13] = test system: barley (HORVX); assay: Selectivity test, PPI, cool season crop; type: in vivo, Hordeunm vulgare; conditions: PPI application
Summary of the method: as §2

[14] = pre-plant incorporated, lowest tested rate with 80% or greater inhibition, about 14 days

CCN(CC)C(=O)n1cnc(S(=O)(=O)C(F)(F)SCC(=O)OC)n1 [Example 11]
Percent inhibition SETFA ([1]; 10 g/ha): 0%
Percent inhibition SETFA ([1]; 30 g/ha): 0%
Percent inhibition SETFA ([1]; 100 g/ha): 90%
Percent inhibition SETFA ([1]; 300 g/ha): 60%
Percent inhibition SETFA ([1]; 900 g/ha): 100%
PPI activity GR80, SETFA [1, 14]: 300 g/ha
Percent inhibition SORVU ([2]; 10 g/ha): 0%
Percent inhibition SORVU ([2]; 30 g/ha): 0%
Percent inhibition SORVU ([2]; 100 g/ha): 10%
Percent inhibition SORVU ([2]; 300 g/ha): 65%
Percent inhibition SORVU ([2]; 900 g/ha): 100%
PPI activity GR80, SORVU [2, 14]: 300 g/ha
Percent inhibition BRAPP ([3]; 10 g/ha): 0%
Percent inhibition BRAPP ([3]; 30 g/ha): 0%
Percent inhibition BRAPP ([3]; 100 g/ha): 60%
Percent inhibition BRAPP ([3]; 300 g/ha): 100%
Percent inhibition BRAPP ([3]; 900 g/ha): 100%
PPI activity GR80, BRAPP [3, 14]: 300 g/ha
PPI activity GR80, GALAP [4, 14]: 300 g/ha
Percent inhibition GALAP ([4]; 10 g/ha): 0%
Percent inhibition GALAP ([4]; 30 g/ha): 0%
Percent inhibition GALAP ([4]; 100 g/ha): 0%
Percent inhibition GALAP ([4]; 300 g/ha): 20%
Percent inhibition GALAP ([4]; 900 g/ha): 90%
PPI activity GR80, SINAR [5, 14]: 100 g/ha
Percent inhibition SINAR ([5]; 10 g/ha): 0%
Percent inhibition SINAR ([5]; 30 g/ha): 0%
Percent inhibition SINAR ([5]; 100 g/ha): 0%
Percent inhibition SINAR ([5]; 300 g/ha): 0%
Percent inhibition SINAR ([5]; 900 g/ha): 99%
PPI activity GR80, SASKR [6, 14]: 100 g/ha
Percent inhibition SASKR ([6]; 10 g/ha): 0%
Percent inhibition SASKR ([6]; 30 g/ha): 20%
Percent inhibition SASKR ([6]; 300 g/ha): 30%
Percent inhibition SASKR ([6]; 900 g/ha): 65%
PPI activity GR80, STEME [7, 14]: 300 g/ha
Percent inhibition STEME ([7]; 10 g/ha): 0%
Percent inhibition STEME ([7]; 30 g/ha): 0%
Percent inhibition STEME ([7]; 100 g/ha): 0%
Percent inhibition STEME ([7]; 300 g/ha): 0%
Percent inhibition STEME ([7]; 900 g/ha): 30%
PPI activity GR80, LAMPU [8, 14]: 300 g/ha
Percent inhibition LAMPU ([8]; 10 g/ha): 0%
Percent inhibition LAMPU ([8]; 30 g/ha): 0%
Percent inhibition LAMPU ([8]; 100 g/ha): 0%
Percent inhibition LAMPU ([8]; 300 g/ha): 0%
Percent inhibition LAMPU ([8]; 900 g/ha): 0%
PPI activity GR80, SETVI [9, 14]: 300 g/ha
Percent inhibition SETVI ([9]; 10 g/ha): 80%
Percent inhibition SETVI ([9]; 30 g/ha): 90%
Percent inhibition SETVI ([9]; 100 g/ha): 99%
Percent inhibition SETVI ([9]; 300 g/ha): 95%
Percent inhibition SETVI ([9]; 900 g/ha): 100%
PPI activity GR80, AGRRE [10, 14]: * (activity observed, at least at highest rate, but <80% inhibition)
Percent inhibition AGRRE ([10]; 10 g/ha): 0%
Percent inhibition AGRRE ([10]; 30 g/ha): 0%
Percent inhibition AGRRE ([10]; 100 g/ha): 0%
Percent inhibition AGRRE ([10]; 300 g/ha): 0%
Percent inhibition AGRRE ([10]; 900 g/ha): 0%
Percent inhibition ZEAMX ([11]; 10 g/ha): 0%
Percent inhibition ZEAMX ([11]; 30 g/ha): 0%
Percent inhibition ZEAMX ([11]; 100 g/ha): 0%
Percent inhibition ZEAMX ([11]; 300 g/ha): 0%
Percent inhibition ZEAMX ([11]; 900 g/ha): 10%
Percent inhibition TRZAW ([12]; 10 g/ha): 0%
Percent inhibition TRZAW ([12]; 30 g/ha): 0%
Percent inhibition TRZAW ([12]; 100 g/ha): 0%
Percent inhibition TRZAW ([12]; 300 g/ha): 0%
Percent inhibition TRZAW ([12]; 900 g/ha): 20%
Percent inhibition HORVX ([13]; 10 g/ha): 0%
Percent inhibition HORVX ([13]; 30 g/ha): 0%
Percent inhibition HORVX ([13]; 100 g/ha): 0%
Percent inhibition HORVX ([13]; 300 g/ha): 0%
Percent inhibition HORVX ([13]; 900 g/ha): 10%
